Measurements: patent US8906925B2, “Pyrido[4,3-B]indoles containing rigid moieties” (Medivation Technologies, Inc., priority 2008, dated 2014)
Several values for one entry are separate records, joined by “and”; a condition that tells them apart may be missing. Identical values can stand only once. Like-named read-outs stand apart in the source and are kept apart here.

Experiments:
[1] = molecular target: T1, human recombinant adrenergic α2A receptor (Homo sapiens, UniProt P08913); test: Adrenergic α2A radioligand binding ([3H]MK-912); settings: for inhibition at 1 µM: read-out: Inhibition of ligand binding, Adrenergic α2A
T1 construct: expressed in transfected cells; host or cells: insect Sf9 cells
T1 sequence (P08913 1-465): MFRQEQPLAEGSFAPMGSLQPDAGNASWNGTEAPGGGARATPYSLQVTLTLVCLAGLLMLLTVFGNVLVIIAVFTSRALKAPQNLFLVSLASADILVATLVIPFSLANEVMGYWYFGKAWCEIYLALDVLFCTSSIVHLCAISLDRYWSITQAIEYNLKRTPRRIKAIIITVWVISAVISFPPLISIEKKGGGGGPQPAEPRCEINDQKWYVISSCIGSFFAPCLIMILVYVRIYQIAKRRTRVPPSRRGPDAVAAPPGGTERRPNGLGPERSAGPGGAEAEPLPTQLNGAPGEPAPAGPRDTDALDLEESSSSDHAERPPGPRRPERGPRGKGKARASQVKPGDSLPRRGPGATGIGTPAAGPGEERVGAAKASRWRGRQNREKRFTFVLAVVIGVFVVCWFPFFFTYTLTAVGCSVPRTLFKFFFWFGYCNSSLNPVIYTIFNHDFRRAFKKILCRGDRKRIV
Procedure: To evaluate in radioligand binding assays the activity of compounds of the invention, human recombinant adrenergic α2A receptor expressed in insect Sf9 cells (Uhlen S et al. J Pharmacol Exp Ther. 271:1558, 1994) in a modified Tris-HCl buffer (50 mM Tris-HCl, pH 7.4, 12.5 mM MgCl2, 2 mM EDTA) was used. Compounds of invention were incubated with 1 nM [^3H]MK-912 for 60 min. at 25° C. MK912 is (2S-trans)-1,3,4,5′,6,6′,7,12b-octahydro-1′,3′-dimethyl-spiro[2H-benzofuro[2,3-a]quinolizine-2,4′(1′H)-pyrimidin]-2′(3′H)-one hydrochloride Non-specific binding was estimated in the presence of 10 μM WB-4101 (2-(2,6-Dimethoxyphenoxyethyl)aminomethyl-1,4-benzodioxane hydrochloride). Receptor proteins were filtered and washed, the filters were then counted to determine [^3H]MK-912 specifically bound. Compounds were screened at 1 μM or lower, using 1% DMSO as vehicle. Biochemical assay results are presented as the percent inhibition of specific binding in Table 9.

histamine receptor H1 = histamine receptor H1 (Homo sapiens, UniProt P35367); test: Histamine H1 radioligand binding ([3H]Pyrilamine)
histamine receptor H1, sequence (P35367 whole entry): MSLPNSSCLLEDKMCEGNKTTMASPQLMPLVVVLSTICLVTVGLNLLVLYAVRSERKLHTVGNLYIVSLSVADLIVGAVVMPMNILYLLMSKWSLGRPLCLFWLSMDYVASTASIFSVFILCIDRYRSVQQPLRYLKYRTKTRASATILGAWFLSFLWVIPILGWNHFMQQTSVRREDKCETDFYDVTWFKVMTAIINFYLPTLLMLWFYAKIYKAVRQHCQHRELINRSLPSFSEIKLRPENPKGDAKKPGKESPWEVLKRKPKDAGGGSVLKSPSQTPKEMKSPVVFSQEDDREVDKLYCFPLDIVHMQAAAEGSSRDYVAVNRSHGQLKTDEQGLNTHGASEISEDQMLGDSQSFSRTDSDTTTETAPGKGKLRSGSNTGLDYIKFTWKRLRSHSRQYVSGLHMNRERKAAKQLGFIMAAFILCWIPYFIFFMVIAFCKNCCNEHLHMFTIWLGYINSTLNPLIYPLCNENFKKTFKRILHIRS
How it was run: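 Values are percent inhibition of specific [3H]pyrilamine (1.2 nM) binding with compounds at ≤1 μM (1% DMSO vehicle); 180 min incubation at 25 °C, pH 7.4 Tris buffer, on CHO-expressed human H1 receptor; 1 μM pyrilamine defined nonspecific binding, bound ligand counted after filtration.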

[2] = molecular target: T2, human recombinant serotonin (5-Hydroxytryptamine) 5-HT2C receptor (Homo sapiens, UniProt P28335); test: Serotonin 5-HT2C radioligand binding ([3H]Mesulergine); settings: for inhibition at 0.1 µM / inhibition at 1 µM: read-out: Inhibition of ligand binding, Serotonin 5-HT2C (percent inhibition of specific binding)
T2 construct: expressed in transfected cells; host or cells: Chinese hamster ovary (CHO-K1) cells
T2 sequence (P28335 33-458): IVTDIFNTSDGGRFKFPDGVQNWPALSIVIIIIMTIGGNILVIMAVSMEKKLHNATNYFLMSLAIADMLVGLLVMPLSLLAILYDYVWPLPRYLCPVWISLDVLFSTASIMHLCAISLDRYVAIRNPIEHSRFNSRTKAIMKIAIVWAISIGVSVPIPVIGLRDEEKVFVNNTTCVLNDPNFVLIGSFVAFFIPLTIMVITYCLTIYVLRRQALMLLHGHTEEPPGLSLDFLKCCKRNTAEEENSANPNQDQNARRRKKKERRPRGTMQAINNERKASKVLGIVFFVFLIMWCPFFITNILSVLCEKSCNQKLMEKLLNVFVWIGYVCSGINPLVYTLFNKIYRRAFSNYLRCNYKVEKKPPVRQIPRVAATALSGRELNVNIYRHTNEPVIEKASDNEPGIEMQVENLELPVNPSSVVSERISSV
How it was run: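 Compounds tested at 1 μM or lower (1% DMSO vehicle) for displacement of 1 nM [3H]Mesulergine over 60 min at 25° C. Specific binding determined by filtration counting, with 1 μM Mianserin defining non-specific binding; values are percent inhibition.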

[3] = percent inhibition of specific binding, compound at 1 μM
[4] = read-out: Histamine Binding (1 μM) H1, percent inhibition of specific binding, 1 μM

SMILES	inhibition at 1 µM [1, 3]	inhibition at 1 µM (histamine receptor H1; [4])	inhibition at 1 µM ([2]; compound at 1 μM)	other results
Cc1ccc(C(O)Cn2c3c(c4cc(C)ccc42)CN(C)CC3)cc1 (racemic) [Compound 43, racemic-2-(1,2,3,4-tetrahydro-2,8-dimethylpyrido[4,3-b]indol-5-yl)-1-p-tolylethanol]	98%	81%	96%	inhibition at 0.1 µM ([2]; compound at 0.1 μM): 81%
CCN1CCc2c(c3ccccc3n2CC(O)c2ccc(C)cc2)C1 (racemic) [Compound 44, racemic-2-(2-ethyl-1,2,3,4-tetrahydropyrido[4,3-b]indol-5-yl)-1-p-tolylethanol]	65%	54%	36%	
CCN1CCc2c(c3cc(C)ccc3n2CC(O)c2ccc(C)cc2)C1 (racemic) [Compound 51, racemic-2-(2-ethyl-1,2,3,4-tetrahydro-8-methylpyrido[4,3-b]indol-5-yl)-1-p-tolylethanol]	91%	100%	84%	inhibition at 0.1 µM ([2]; compound at 0.1 μM): 43%
Cc1ccc(C(O)Cn2c3c(c4ccccc42)CN(C)CC3)cc1 (racemic) [Compound 53, racemic-2-(1,2,3,4-tetrahydro-2-methylpyrido[4,3-b]indol-5-yl)-1-p-tolylethanol]	93%	47%	82%	
CC(=Cn1c2c(c3cc(Cl)ccc31)CN(C)CC2)c1ccc(Cl)cc1Cl (stereo in doubt) [Compound 111, (Z)-8-chloro-5-(2-(2,4-dichlorophenyl)prop-1-enyl)-2,3,4,5-tetrahydro-2-methyl-1H-pyrido[4,3-b]indole]			100%	Inhibition of ligand binding, Adrenergic α2A ([1]; percent inhibition of specific binding, compound at 1 μM, 1 µM): 101%; Histamine Binding (1 μM) H1, percent inhibition of specific binding (histamine receptor H1): 73% and 74%; inhibition at 0.1 µM ([2]; compound at 0.1 μM): 95%
Cc1ccc2[nH]c3c(c2c1)CN(C)CC3 [Compound 3, 2,8-Dimethyl-2,3,4,5-tetrahydro-1H-pyrido[4,3-b]indole]			96%	inhibition at 1 µM [1]: 58%; inhibition at 1 µM (histamine receptor H1; read-out: Histamine Binding (1 μM) H1, percent inhibition of specific binding): 30%
CN1CCc2c(c3cc(Cl)ccc3n2CC(C)(O)c2ccc(F)cc2)C1 (centres unmarked) [Compound 45, 1-(8-chloro-1,2,3,4-tetrahydro-2-methylpyrido[4,3-b]indol-5-yl)-2-(4-fluorophenyl)propan-2-ol]	89%	65%	95%	Histamine Binding (1 μM) H1, percent inhibition of specific binding (histamine receptor H1): 73%; inhibition at 0.1 µM ([2]; compound at 0.1 μM): 88%
Cc1ccc(C(C)(O)Cn2c3c(c4cc(Cl)ccc42)CN(C)CC3)cn1 (centres unmarked) [Compound 47, 1-(8-chloro-1,2,3,4-tetrahydro-2-methylpyrido[4,3-b]indol-5-yl)-2-(6-methylpyridin-3-yl)propan-2-ol]	81%	33%	81%	
Cc1ccc2c(c1)c1c(n2CC(O)c2ccc(C)nc2)CCN(C)C1 (centres unmarked) [Compound 48, 2-(2,8-dimethyl-3,4-dihydro-1H-pyrido[4,3-b]indol-5(2H)-yl)-1-(6-methylpyridin-3-yl)ethanol]	83%	93%	67%	
Cc1ccc2c(c1)c1c(n2CC(C)(O)c2ccc(C)nc2)CCN(C)C1 (centres unmarked) [Compound 52, 1-(1,2,3,4-tetrahydro-2,8-dimethylpyrido[4,3-b]indol-5-yl)-2-(6-methylpyridin-3-yl)propan-2-ol]	84%	46%	87%	
Cc1ccc2c(c1)c1c(n2CC(O)c2cccnc2)CCN(C)C1 (centres unmarked) [Compound 54, 2-(1,2,3,4-tetrahydro-2,8-dimethylpyrido[4,3-b]indol-5-yl)-1-(pyridin-3-yl)ethanol]	39%	68%	22%	
Cc1ccc2c(c1)c1c(n2CC(C)(O)c2ccc(F)cc2)CCN(C)C1 (centres unmarked) [Compound 55, 2-(4-fluorophenyl)-1-(1,2,3,4-tetrahydro-2,8-dimethylpyrido[4,3-b]indol-5-yl)propan-2-ol]	85%	91%	93%	
CN1CCc2c(c3cc(Cl)ccc3n2CC(O)c2cccnc2)C1 (centres unmarked) [Compound 56, 2-(8-chloro-1,2,3,4-tetrahydro-2-methylpyrido[4,3-b]indol-5-yl)-1-(pyridin-3-yl)ethanol]	65%	90%	38%	
COc1ccc(C(C)(O)Cn2c3c(c4cc(Cl)ccc42)CN(C)CC3)cc1 (centres unmarked) [Compound 57, 1-(8-chloro-1,2,3,4-tetrahydro-2-methylpyrido[4,3-b]indol-5-yl)-2-(4-methoxyphenyl)propan-2-ol]	70%	41%	86%	
COc1ccc(C(C)(O)Cn2c3c(c4cc(Cl)ccc42)CN(C)CC3)cc1F (centres unmarked) [Compound 59, 1-(8-chloro-1,2,3,4-tetrahydro-2-methylpyrido[4,3-b]indol-5-yl)-2-(3-fluoro-4-methoxyphenyl)propan-2-ol]	83%	63%	99%	
Cc1ccc2c(c1)c1c(n2CC(C)(O)c2cccnc2)CCN(C)C1 (centres unmarked) [Compound 60, 1-(1,2,3,4-tetrahydro-2,8-dimethylpyrido[4,3-b]indol-5-yl)-2-(pyridin-3-yl)propan-2-ol]	81%	52%	86%	
CN1CCc2c(c3cc(Cl)ccc3n2CC(C)(O)c2cccnc2)C1 (centres unmarked) [Compound 61, 1-(8-chloro-1,2,3,4-tetrahydro-2-methylpyrido[4,3-b]indol-5-yl)-2-(pyridin-3-yl)propan-2-ol]	76%	52%	90%	
Cc1ccc2c(c1)c1c(n2CC(C)(O)c2ccncc2)CCN(C)C1 (centres unmarked) [Compound 62, 1-(1,2,3,4-tetrahydro-2,8-dimethylpyrido[4,3-b]indol-5-yl)-2-(pyridin-4-yl)propan-2-ol]	57%	38%	89%	
CN1CCc2c(c3cc(Cl)ccc3n2CC(C)(O)c2ccncc2)C1 (centres unmarked) [Compound 63, 1-(8-chloro-1,2,3,4-tetrahydro-2-methylpyrido[4,3-b]indol-5-yl)-2-(pyridin-4-yl)propan-2-ol]	74%	46%	95%	
CCC(O)(Cn1c2c(c3cc(Cl)ccc31)CN(C)CC2)c1ccc(F)cc1 (centres unmarked) [Compound 78, 1-(8-chloro-1,2,3,4-tetrahydro-2-methylpyrido[4,3-b]indol-5-yl)-2-(4-fluorophenyl)butan-2-ol]	91%	52%	103%	Histamine Binding (1 μM) H1, percent inhibition of specific binding (histamine receptor H1): 69%; inhibition at 0.1 µM ([2]; compound at 0.1 μM): 69%
C/C(=C\n1c2c(c3cc(C)ccc31)CN(C)CC2)c1ccncc1 [Compound 88, (E)-2,3,4,5-tetrahydro-2,8-dimethyl-5-(2-(pyridin-4-yl)prop-1-enyl)-1H-pyrido[4,3-b]indole]	65%		99%	Inhibition of ligand binding, Serotonin 5-HT2C (percent inhibition of specific binding) ([2]; compound at 0.1 μM, 0.1 µM): 74% and 96%; Inhibition of ligand binding, Serotonin 5-HT2C (percent inhibition of specific binding) ([2]; compound at 1 μM, 1 µM): 100%
